Assay [1] can be described thus: Luminescence-based cell-based high throughput dose response assay to identify activators of the DAF-12 from the parasite S. stercoralis (ssDAF-12). In kind it is functional.
Assay [2] deals with T1, Oxysterols receptor LXR-beta (Homo sapiens, UniProt P55055).
T1 sequence (P55055 whole entry): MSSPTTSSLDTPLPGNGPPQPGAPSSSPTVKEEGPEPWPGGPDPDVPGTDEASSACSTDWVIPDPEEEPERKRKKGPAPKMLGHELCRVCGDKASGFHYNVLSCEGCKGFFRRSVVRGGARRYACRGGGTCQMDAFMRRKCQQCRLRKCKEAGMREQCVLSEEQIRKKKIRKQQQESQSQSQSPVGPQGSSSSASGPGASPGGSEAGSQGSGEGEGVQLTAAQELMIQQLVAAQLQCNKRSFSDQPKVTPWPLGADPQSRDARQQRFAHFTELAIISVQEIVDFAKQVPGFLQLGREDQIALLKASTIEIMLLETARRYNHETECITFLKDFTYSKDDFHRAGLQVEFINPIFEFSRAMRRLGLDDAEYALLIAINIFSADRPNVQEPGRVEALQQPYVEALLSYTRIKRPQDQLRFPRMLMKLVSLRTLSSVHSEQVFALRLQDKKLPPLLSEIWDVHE
Put plainly: LXR agonists, Gal4 luciferase reporter, dose response, counter-screen for ssDAF-12 agonist project, cell-based, luminescence, HEK293, S. stercoralis campaign (AID 720737). In kind it is functional. To be noted: read-out: IC50 (the source's name). (In general: A reporter such as luciferase makes a cellular process visible.)

The target of assay [3] is T2, Heat shock factor protein 1 (Mus musculus, UniProt P38532).
T2 sequence (P38532 whole entry): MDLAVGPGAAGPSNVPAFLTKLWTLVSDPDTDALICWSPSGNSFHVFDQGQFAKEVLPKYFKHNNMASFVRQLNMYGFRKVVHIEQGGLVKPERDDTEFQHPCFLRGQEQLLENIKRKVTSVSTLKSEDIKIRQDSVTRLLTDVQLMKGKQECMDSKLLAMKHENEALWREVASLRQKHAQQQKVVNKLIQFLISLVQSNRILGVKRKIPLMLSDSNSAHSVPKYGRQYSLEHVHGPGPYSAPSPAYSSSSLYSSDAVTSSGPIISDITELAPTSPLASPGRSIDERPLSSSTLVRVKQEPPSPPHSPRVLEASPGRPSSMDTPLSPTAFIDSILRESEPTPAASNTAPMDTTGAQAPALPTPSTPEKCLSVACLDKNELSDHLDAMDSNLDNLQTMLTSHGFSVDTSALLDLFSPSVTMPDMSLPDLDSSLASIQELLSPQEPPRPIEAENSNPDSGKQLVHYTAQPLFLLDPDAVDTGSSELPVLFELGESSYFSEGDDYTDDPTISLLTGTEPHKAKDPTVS
Put plainly: enhancement of HSF1-driven luciferase signal – cell-based, NIH3T3, luminescence, dose retest, confirmation (AID 435004).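 Further: stress induced by proteasome inhibitor MG132 added 30 min after compound; luciferase reporter driven by HSF1 response element in NIH3T3 cells; actives raise luminescence as potentiators of the MG132 stress response.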 Type of assay: functional.

The nature of assay [4]: potency of ADAM10 substrate cleavage blockers – biochemical, QFRET, dose response (AID 743254).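 Further: ADAM10 enzyme with the DM2 quenched FRET peptide as substrate; EDANS fluorescence gain as the protease cuts the substrate; inhibitor potency against ADAM10 proteolytic activity.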
In assay [5] the target is Disintegrin and metalloproteinase domain-containing protein 17 (Homo sapiens, UniProt P78536). Put plainly: inhibition of ADAM17 substrate cleavage – biochemical, quenched FRET substrate, counter-screen for ADAM10 exosite inhibitor project, dose response (AID 743253). (The purpose of a counterscreen is to sort out artefacts and off-target activity.)
Disintegrin and metalloproteinase domain-containing protein 17, sequence (P78536 whole entry, the tested form may be a part): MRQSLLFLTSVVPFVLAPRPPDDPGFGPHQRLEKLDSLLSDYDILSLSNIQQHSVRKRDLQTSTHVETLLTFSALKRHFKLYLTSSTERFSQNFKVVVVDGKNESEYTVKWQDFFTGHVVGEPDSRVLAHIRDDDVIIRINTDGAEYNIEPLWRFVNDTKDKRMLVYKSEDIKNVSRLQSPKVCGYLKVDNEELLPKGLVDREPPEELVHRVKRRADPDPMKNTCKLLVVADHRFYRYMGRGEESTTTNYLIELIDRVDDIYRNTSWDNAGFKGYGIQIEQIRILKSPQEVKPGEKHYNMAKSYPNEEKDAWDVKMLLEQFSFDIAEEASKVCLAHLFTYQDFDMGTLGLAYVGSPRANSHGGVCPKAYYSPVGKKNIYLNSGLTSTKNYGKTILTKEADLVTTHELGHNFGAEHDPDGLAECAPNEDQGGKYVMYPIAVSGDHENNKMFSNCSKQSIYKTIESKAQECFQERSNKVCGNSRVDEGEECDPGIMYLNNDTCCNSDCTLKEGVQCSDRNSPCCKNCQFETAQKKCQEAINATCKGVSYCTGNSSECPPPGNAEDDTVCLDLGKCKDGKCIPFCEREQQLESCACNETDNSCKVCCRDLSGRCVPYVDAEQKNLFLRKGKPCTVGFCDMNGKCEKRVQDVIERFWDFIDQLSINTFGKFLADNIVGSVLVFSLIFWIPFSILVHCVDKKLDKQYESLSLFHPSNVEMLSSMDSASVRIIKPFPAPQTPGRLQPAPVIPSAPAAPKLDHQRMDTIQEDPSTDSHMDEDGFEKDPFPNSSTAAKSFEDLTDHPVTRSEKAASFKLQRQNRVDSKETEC
Assay [6] is described as follows: COV362 cell viability loss – plate reader, dry powder, SA12, cytotoxicity control for PAX8 inhibitor project, dose response (AID 743144). In kind it is functional, cell-based.
Assay [7] can be described thus: A2780 cell killing – plate reader, dry powder samples, cytotoxicity control, dose response (AID 743046). Type of assay: functional, cell-based.
A short description of assay [8]: IGROV1 cell killing – plate reader, dry powder samples, PAX8 inhibitor project, dose response (AID 743043). Conditions: IGROV-1. In kind it is functional, cell-based.
A short description of assay [9]: toxicity toward immortalized ovarian surface epithelium – cell-based, plate reader, dry powder samples, cytotoxicity control for PAX8 inhibitor project, dose response (AID 743045). In kind it is functional.
Assay [10] in a line: OVCAR-3 cell viability loss – plate reader, dry powder samples, PAX8 inhibitor project, dose response (AID 743044). Type of assay: functional, cell-based.
The nature of assay [11]: OV-90 cell viability loss – plate reader, dry powder, SA8, PAX8 inhibitor project, dose response (AID 743149). In kind it is functional, cell-based.
Assay [12] can be described thus: OVCAR4 cell viability loss – plate reader, dry powder, SA11, cytotoxicity control for PAX8 inhibitor project, dose response (AID 743150). In kind it is functional, cell-based. Conditions: OVCAR-4.
The nature of assay [13]: COV434 cell viability loss – plate reader, dry powder, SA7, cytotoxicity control for PAX8 inhibitor project, dose response (AID 743145). Type of assay: functional, cell-based.
A further assay deals with Paired box protein Pax-8 (Homo sapiens, UniProt Q06710). Put plainly: PAX8 transcriptional activity inhibition in RMG-I – RMG-I cells, luciferase, cherry-pick, dose response (AID 687027).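 Further: luciferase reporter driven by Pax8 target thyroperoxidase promoter measured by SteadyGlo luminescence.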 In kind it is functional, cell-based.
Paired box protein Pax-8, sequence (Q06710 whole entry): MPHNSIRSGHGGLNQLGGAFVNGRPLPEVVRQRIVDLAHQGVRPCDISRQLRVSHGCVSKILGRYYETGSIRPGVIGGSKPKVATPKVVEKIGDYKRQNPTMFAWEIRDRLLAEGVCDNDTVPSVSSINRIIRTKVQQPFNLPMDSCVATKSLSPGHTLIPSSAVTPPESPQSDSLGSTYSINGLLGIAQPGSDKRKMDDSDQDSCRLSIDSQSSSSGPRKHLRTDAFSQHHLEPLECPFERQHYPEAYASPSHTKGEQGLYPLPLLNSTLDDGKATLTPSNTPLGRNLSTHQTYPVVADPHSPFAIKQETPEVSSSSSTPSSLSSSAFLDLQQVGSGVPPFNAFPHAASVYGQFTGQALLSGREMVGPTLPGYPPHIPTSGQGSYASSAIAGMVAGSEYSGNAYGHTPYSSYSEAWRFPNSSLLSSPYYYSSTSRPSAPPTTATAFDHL
Assay [14] can be described thus: PAX8-dependent cell viability loss – plate reader, dry powder, dose response (AID 743049). Type of assay: functional, cell-based.
Assay [15] can be described thus: viability loss in CEM21 cells – cell-based, plate reader, dry powder, cytotoxicity control, dose response (AID 687026). Type of assay: functional.
Assay [16] can be described thus: HIV-1 AD8 envelope cell-cell fusion blockers – cherry-pick, dose response (AID 652062).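 Further: luciferase signal from cell-cell fusion driven by HIV-1 clade B AD8 Env; potency is for inhibitors of fusion seen as a drop in luminescence.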 In kind it is functional, cell-based.
Assay [17] in a line: off-target signal loss in HeLa-CEM21 co-culture – HeLa F-luc CTL cells, cherry-picked, counter-screen for HIV-1 Env fusion inhibitor project, dose response (AID 652040).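 Further: potency for signal decrease marking cytotoxic or nonspecific inhibition.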 In kind it is functional, cell-based.
Assay [18] can be described thus: blockers of HIV-1 envelope-mediated cell-cell fusion – cherry-pick, dose response (AID 652057). Type of assay: functional, cell-based.
The nature of assay [19]: blockers of HIV-1 ZM109 envelope-driven cell-cell fusion – HeLa effector, CEM target cells, luciferase, cherry-pick, dose response (AID 652058).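 Further: luciferase signal from HIV-1 Env mediated cell-cell fusion of effector and target cells.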 Type of assay: functional, cell-based.
The nature of assay [20]: viability loss in CEM21 cells – cell-based, CellTiter-Glo luminescence, cherry-picked, cytotoxicity control for viral fusion inhibitor project, dose response (AID 652042).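 Further: potency for signal decrease meaning cytotoxicity.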 In kind it is functional. On the technique in general: ATP-based viability assays read luminescence as a measure of living cells.
The target of assay [21] is COUP transcription factor 2 (Homo sapiens, UniProt P24468). Kind of assay: Luminescence-based cell-based high throughput dose response assay to identify inhibitors of COUP-TFII (NR2F2). In kind it is functional.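 Further: HEK293 cells transiently cotransfected with COUP-TFII expression vector and reporter; luciferase reporter luminescence driven by COUP-TFII from the pX2-168 reporter plasmid.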
COUP transcription factor 2, sequence (P24468 whole entry): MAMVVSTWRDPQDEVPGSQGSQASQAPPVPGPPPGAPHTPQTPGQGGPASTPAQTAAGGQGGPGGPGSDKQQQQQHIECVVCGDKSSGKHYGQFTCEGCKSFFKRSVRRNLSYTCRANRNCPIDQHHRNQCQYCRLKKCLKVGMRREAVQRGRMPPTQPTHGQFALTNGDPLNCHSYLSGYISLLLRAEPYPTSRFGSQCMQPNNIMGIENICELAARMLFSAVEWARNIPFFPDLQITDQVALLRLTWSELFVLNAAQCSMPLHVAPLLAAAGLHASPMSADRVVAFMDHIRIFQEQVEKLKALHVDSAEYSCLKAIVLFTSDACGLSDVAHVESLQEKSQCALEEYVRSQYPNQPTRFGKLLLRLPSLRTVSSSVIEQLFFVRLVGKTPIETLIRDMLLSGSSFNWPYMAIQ
Assay [22] can be described thus: loss of viability in HepG2 cells – cell-based, CellTiter-Glo, cherry-picked, cytotoxicity control for Shn3 inhibitor project, dose response (AID 624134). Type of assay: functional.
Assay [23] can be described thus: non-specific 3'UTR reporter inhibition in Clone20-Shn3RL – cell-based, Renilla luciferase, cherry-picked, counter-screen for Shn3 inhibitor project, dose response (AID 624133). In kind it is functional.
The nature of assay [24]: reduction of Shn3 3'UTR-driven luciferase in osteoblasts – cell-based, Clone20 osteoblasts, firefly luciferase, cherry-picked, dose response (AID 624132).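 Further: firefly luciferase luminescence from reporter carrying the Shn3 3'UTR in osteoblasts.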 In kind it is functional.
Assay [25] deals with NAD-dependent protein deacylase sirtuin-5, mitochondrial (Homo sapiens, UniProt Q9NXA8). Put plainly: sirtuin-5 deacylation blockers, concentration series – biochemical, fluorescence imaging, cherry-pick, set 5, dose response (AID 720591).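 Further: desuccinylation of succinyl peptide AMC substrate read as fluorescence after trypsin release; potency of inhibitors that lower fluorescence and may act on trypsin instead.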
NAD-dependent protein deacylase sirtuin-5, mitochondrial, sequence (Q9NXA8 whole entry): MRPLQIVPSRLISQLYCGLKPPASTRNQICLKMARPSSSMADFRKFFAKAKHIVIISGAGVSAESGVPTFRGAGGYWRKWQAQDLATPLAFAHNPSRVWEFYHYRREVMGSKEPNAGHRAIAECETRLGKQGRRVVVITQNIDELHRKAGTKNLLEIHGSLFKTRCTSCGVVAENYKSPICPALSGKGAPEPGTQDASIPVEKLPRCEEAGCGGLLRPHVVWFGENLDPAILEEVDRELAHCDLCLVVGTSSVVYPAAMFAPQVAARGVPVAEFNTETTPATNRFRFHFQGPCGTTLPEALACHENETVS
The nature of assay [26]: OVCAR8 cell viability loss – plate reader, dry powder samples, PAX8 project, dose response (AID 743197). In kind it is functional, cell-based. Conditions: OVCAR-8.
A short description of assay [27]: YAP1 overexpression rescue of CTGF inhibition – DLD1 cells, RT-qPCR, cherry-pick, mechanism study for YAP1 pathway inhibitor project, dose response (AID 1053127). Type of assay: functional, cell-based. Conditions: DLD-1.
The nature of assay [28]: CTGF mRNA reduction in DLD1 cells – cell-based, DLD1 colon cancer, RT-qPCR, cherry-pick, dose response (AID 1053122). In kind it is functional. Conditions: Cancer cell lines.
Assay [29] can be described thus: cytotoxicity toward HT-29 cells – cell-based, CellTiter-Glo luminescence, IC50, dose response (AID 1117330). In kind it is functional.
Assay [30] can be described thus: Reduced DLD-1 viability, concentration-response, CellTiter-Glo luminescence (AID 1117352). Type of assay: functional.
Assay [31] is described as follows: CellTiter-Glo luminescence survival assay, SW480 colon tumor line, concentration-response curve, half-maximal inhibitory concentration (AID 1117338). Type of assay: functional.
Assay [32] is described as follows: SNU-C1 cell viability reduction, dose response, CellTiter-Glo luminescence (AID 1117323). Type of assay: functional, cell-based.
Assay [33] is described as follows: cytotoxicity toward Colo320 cells – cell-based, CellTiter-Glo luminescence, IC50, dose response (AID 1117334). In kind it is functional. Conditions: COLO 320.
The nature of assay [34]: RKO cell viability reduction, dose response, CellTiter-Glo luminescence (AID 1117322). Type of assay: functional.
Assay [35] can be described thus: cytotoxicity toward HCT116 cells – cell-based, CellTiter-Glo luminescence, IC50, dose response (AID 1117332). In kind it is functional. To be noted: HCT-116.
A short description of assay [36]: HCT116 cell viability decrease, GSK3B pretreatment – CellTiter-Glo, IC50, dose response (AID 1117339). Type of assay: functional. Conditions: HCT-116.

The structures appear in SMILES notation. Calls of active or inactive are those of the source. Bounds are passed on as bounds.

For orientation: IC50 means the midpoint of a concentration-inhibition curve. On to `Cc1ccc([N+](=O)[O-])c2c1C(N1CC(C)OC(C)C1)C(C)(C)O2` (stereo not given), for which, in [1], the IC50 is > 67.6 µM (inactive). Also, the EC50 in assay [2] is > 67.6 µM (inactive).
Consider `O=C(Nc1cccc(Cl)c1)c1cc(S(=O)(=O)NCCc2ccc(Cl)cc2)ccc1F`, for which the EC50 in assay [3] is > 260 µM (inactive). The IC50 is > 7.72 µM (active) in assay [4] and > 69.5 µM (inactive) in [5].
One may read the AC50 as the concentration at which the activity in the assay is half-maximal. Consider `O=C(CCCN1C(=O)/C(=C\c2cccc(Br)c2)SC1=S)Nc1cccnc1`, for which the concentration at half-maximal activity (AC50) in assay [6] was 30.3 µM (active); in assay [7] it was 17.9 µM (active); in assay [8], 12.5 µM (active); in assay [9], 24.8 µM (active); in assay [10], 12 µM (active); in assay [11] it was 25.7 µM (active). Moreover, the concentration at half-maximal activity (AC50) is 30.3 µM (active) in [12], 31.6 µM (active) in assay [13], 7.56 µM (active) on Paired box protein Pax-8 and 12.1 µM (active) in assay [14].
In the case of `CCCn1nc(C(=O)Nc2ccc3nc(N4CCOCC4)sc3c2)ccc1=O`, the AC50 is > 70 µM (inactive) in assay [15]; 10.3 µM (active) in [16]; > 70 µM (inactive) in assay [17]; 1.85 µM (active) in assay [18]; 1.04 µM (active) in [19]; 67.1 µM (active) in assay [20].
Take `Cn1c(=O)c2nc(CCCCCCCCc3nc4ccccc4[nH]3)[nH]c2n(C)c1=O`: the concentration for half-maximal inhibition (IC50) in [21] was 7.5 µM (active). Besides, the AC50 in assay [22] is 3.88 µM (active); in [23] it was 2.89 µM (active); in assay [24] it was 3.98 µM (active).
As to `CN(C)CCN1CCN(C2CN(Cc3cn(Cc4cccc(Cl)c4)nn3)S(=O)(=O)C2)CC1` (stereo not given), the AC50 in assay [25] is > 30 µM (inactive).
As for `O=C(Cc1ccncc1)N1CCCCN2[C@H](C1)[C@H](c1ccc(C#Cc3ccccc3F)cc1)[C@@H]2CO`, the AC50 in [26] is > 70 µM (inactive); in assay [8] it was 10.3 µM (active); in assay [27], 0.102 µM (active); in assay [10], 3.05 µM (active); in [28], 0.175 µM (active); at Paired box protein Pax-8 it was 7.15 µM (active).
For `COC(=O)CCCCC(CCSS/C(CCO)=C(\C)N(C=O)Cc1cnc(C)nc1N)SC(C)=O` (stereo not given), the IC50 in [29], in [30], in [31], in assay [32], in assay [33] and in assay [34] was > 20 µM (inactive) each time. Moreover, the IC50 in assay [35] and in assay [36] was > 20 µM (inactive) each time.

The values are drawn from ChEMBL document CHEMBL1201862, “PubChem BioAssay data set” (2004).
